Article PMC10609081, “In Vivo Trafficking of the Anticancer Drug Tris(8-Quinolinolato) Gallium (III) (KP46) by Gallium-68/67 PET/SPECT Imaging” (Molecules, 2023)

Target: T1, human serum albumin (HSA) (Homo sapiens, UniProt P02768)
T1 construct: purchased Sigma Aldrich
Assay: Binding to human serum albumin by size exclusion chromatography (PD MidiTrap G-25)
Type: in vitro ADME
Experimental: Solutions of human apo-transferrin (apo-Tf, 2 mg/mL) and human serum albumin (HSA, 50 mg/mL) (both purchased from Sigma Aldrich) were dissolved in aqueous NaHCO3 (5 mM, pH = 8) and PBS (pH = 7.4), respectively. An amount of 1 MBq of tracer-level [^68Ga]KP46 (13–20 µL) or [^68Ga]gallium acetate (20–25 µL) was added to 1.2 mL of the apo-Tf solution and to a similar apo-Tf-free NaHCO3 solution (control). Similarly, [^68Ga]KP46 and [^68Ga]gallium acetate solutions were added to 1.5 mL PBS containing HSA or HSA-free PBS (control). The samples were incubated for 60 min at 37 °C (pH = 7–7.5). From each mixture, 0.5 mL was loaded into PD MidiTrap G-25 size exclusion chromatography cartridges that were preconditioned with 8 mL of NaHCO3 (5 mM) (for apo-Tf binding) or PBS (for HSA binding). Fractions (0.5 mL) were collected and counted with a Wallac gamma counter. Protein absorbance at 280 nm was measured using a Nanodrop spectrophotometer. To investigate the speciation of the Ga–KP46 complex in the presence of apo-Tf at later time points (up to 48 h), the experiment was repeated with ^67Ga.

T1 sequence (P02768 25-609): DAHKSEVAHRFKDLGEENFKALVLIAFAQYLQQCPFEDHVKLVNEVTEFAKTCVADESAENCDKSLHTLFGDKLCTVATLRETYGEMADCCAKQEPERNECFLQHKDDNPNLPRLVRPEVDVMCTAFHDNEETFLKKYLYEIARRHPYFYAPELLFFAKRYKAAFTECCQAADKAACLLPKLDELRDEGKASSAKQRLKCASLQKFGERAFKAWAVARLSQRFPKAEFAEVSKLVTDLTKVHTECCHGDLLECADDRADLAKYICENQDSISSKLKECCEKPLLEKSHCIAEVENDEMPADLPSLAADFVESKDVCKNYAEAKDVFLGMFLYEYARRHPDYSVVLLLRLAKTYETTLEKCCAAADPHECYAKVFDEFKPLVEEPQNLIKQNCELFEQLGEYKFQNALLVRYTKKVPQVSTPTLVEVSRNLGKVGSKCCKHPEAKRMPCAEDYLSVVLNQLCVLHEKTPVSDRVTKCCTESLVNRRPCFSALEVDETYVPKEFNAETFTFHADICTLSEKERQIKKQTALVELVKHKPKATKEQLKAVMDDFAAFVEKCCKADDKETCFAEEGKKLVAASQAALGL

## [68Ga+3].[O-]c1cccc2cccnc12.[O-]c1cccc2cccnc12.[O-]c1cccc2cccnc12 [[^68Ga]KP46]
1 h incubation at 37 °C, HSA 50 mg/mL in PBS
  radioactivity coeluting with HSA: about 16%
Incubated 1 h with HSA
  binding of radioactivity to HSA: significant binding
